Results on 19 compounds are retold here after US20260325685A1, “Radiopharmaceutical Compositions Targeting Carbonic Anhydrase IX and Uses Thereof” (RayzeBio, Inc., priority 2023, published 2026).

Read-outs that look alike come from different tables or passages of the source.

The term Kd denotes the concentration at which binding is half-saturated.

The target in one assay is T1, human CA-XII (Homo sapiens, UniProt O43570).
T1 construct: purchased Creative BioMart CA12-261H
The assay is described as follows: Surface Plasmon Resonance (SPR) binding kinetics to recombinant human CA-XII (Biacore 8K, single-cycle kinetics, 1:1 binding model). The procedure, abridged:
(§1)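 Streptavidin capture, 1200-1800 RU; capture injection 180 s (CA-IX) vs 75 s (CA-XII). Analyte 100-0.39 nM, 9 conc., PBS-P+ pH 7.4 + 1% DMSO, 25° C. On 120 s, off 1200 s; ka/kd after reference subtraction and DMSO correction.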

Another assay has as its target T2, human CA-IX (Homo sapiens, UniProt Q16790).
T2 construct: purchased Acro CA9-H82E3
Nature of the assay: Surface Plasmon Resonance (SPR) binding kinetics to recombinant human CA-IX (Biacore 8K, single-cycle kinetics, 1:1 binding model). The essentials: as §1
In general terms: Surface plasmon resonance follows binding to a sensor surface in real time, without labels.

The mark [1] stands for this setting: Chelated Metal: Lu-175, 25° C., pH 7.4, read-out: CAXII KD.
[2] abbreviates: Chelated Metal: Lu-175; SPR, 25° C., pH 7.4; read-out: CAIX KD.
Where [3] appears, read: read-out: CAXII KD, Chelated Metal: Lu-175, 25° C., pH 7.4.
The mark [4] stands for this setting: read-out: CAIX KD; Chelated Metal: Lu-175; SPR, 25° C., pH 7.4.

T1 sequence (O43570 25-354): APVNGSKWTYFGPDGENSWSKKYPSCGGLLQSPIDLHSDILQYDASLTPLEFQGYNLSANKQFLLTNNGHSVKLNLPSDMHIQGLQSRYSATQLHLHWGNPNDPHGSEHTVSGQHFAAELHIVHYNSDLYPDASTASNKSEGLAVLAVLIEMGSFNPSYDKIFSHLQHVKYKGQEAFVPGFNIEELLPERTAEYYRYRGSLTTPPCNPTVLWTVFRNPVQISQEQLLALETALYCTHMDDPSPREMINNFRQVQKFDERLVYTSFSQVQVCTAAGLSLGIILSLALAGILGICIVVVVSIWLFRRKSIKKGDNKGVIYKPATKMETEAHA

Take `CC(CCCC(=O)N[C@@H](CC(=O)N[C@@H](CC(=O)N1CCN(C(=O)CN2CCN(CC(=O)O)CCN(CC(=O)O)CCN(CC(=O)O)CC2)C[C@H]1C(=O)NCCn1cc(C23CC(C(=O)Nc4nnc(S(N)(=O)=O)s4)(C2)C3)nn1)C(=O)O)C(=O)O)(c1ccc(O)cc1)c1ccc(O)cc1` [Compound 109.62]: the Kd on human CA-XII (Chelated Metal: None, 25° C., pH 7.4, read-out: CAXII KD) is above 10 nM; on human CA-IX (Chelated Metal: None; SPR, 25° C., pH 7.4; read-out: CAIX KD) it was below 1 nM. For the same compound, the “Ratio (CAXII/CAIX)” value on human CA-IX (KD ratio CAXII/CAIX; Chelated Metal: None) is reported as “*** (10 < *** ≤ 50)”.

On to `NS(=O)(=O)c1nnc(NC(=O)C23CC(c4cn(CCNC(=O)[C@@H]5CN(C(=O)CN6CCN(CC(=O)O)CCN(CC(=O)O)CCN(CC(=O)O)CC6)CCN5C(=O)CNC(=O)C5(C(=O)O)CCN(C(=O)Cc6ccc7cn[nH]c7c6)CC5)nn4)(C2)C3)s1.[Lu+3]` [Compound 112.1], for which the Kd at human CA-XII (setting [1]) was above 10 nM; at human CA-IX (setting [2]) it was 2.5 to 10 nM.

As to `CC(CCC(=O)N[C@@H](CC(=O)N[C@@H](CC(=O)N1CCN(C(=O)CN2CCN(CC(=O)O)CCN(CC(=O)O)CCN(CC(=O)O)CC2)C[C@H]1C(=O)NCC(=O)N1CCC2(CC1)CC(C(=O)Nc1nnc(S(N)(=O)=O)s1)C2)C(=O)O)C(=O)O)(c1ccc(O)cc1)c1ccc(O)cc1.[Lu+3]` [Compound 119], the Kd on human CA-XII (setting [3]) is above 10 nM; on human CA-IX (setting [4]), 2.5 to 10 nM.

Consider `NS(=O)(=O)c1nnc(NC(=O)C23CCC(c4cn(CCNC(=O)[C@@H]5CN(C(=O)CN6CCN(CC(=O)O)CCN(CC(=O)O)CCN(CC(=O)O)CC6)CCN5C(=O)CC[C@H](NC(=O)C[C@H](NC(=O)CCC5CCCCC5)C(=O)O)C(=O)O)nn4)(CC2)CC3)s1.[Lu+3]` [Compound 109.44], for which the Kd on human CA-XII (setting [1]) and on human CA-IX (setting [2]) was below 1 nM each time.

For the compound `CNC(=O)C1(C(=O)NCC(=O)N2CCN(C(=O)CN3CCN(CC(=O)O)CCN(CC(=O)O)CCN(CC(=O)O)CC3)C[C@@H]2C(=O)NCCn2cc(C34CC(C(=O)Nc5nnc(S(N)(=O)=O)s5)(C3)C4)nn2)CCN(C(=O)CCCC(C)(c2ccc(O)cc2)c2ccc(O)cc2)CC1.[Lu+3]` [Compound 107.34], the Kd is above 10 nM on human CA-XII (setting [1]) and below 1 nM on human CA-IX (setting [2]).

Consider `NS(=O)(=O)c1nnc(NC(=O)C23CC(c4cn(CCNC(=O)[C@@H]5CN(C(=O)CN6CCN(CC(=O)O)CCN(CC(=O)O)CCN(CC(=O)O)CC6)CCN5C(=O)C[C@H](NC(=O)C[C@H](NC(=O)CCC5CCCCCC5)C(=O)O)C(=O)O)nn4)(C2)C3)s1.[Lu+3]` [Compound 109.2], for which the Kd at human CA-XII (setting [1]) is 1 to 2.5 nM; at human CA-IX (setting [2]) it was below 1 nM.

On to `CC(CCC(=O)N[C@@H](CC(=O)N[C@@H](CC(=O)NC1(C(=O)NCCOCCOCCNC(=O)CN2CCN(CC(=O)O)CCN(CC(=O)O)CCN(CC(=O)O)CC2)CN(C(=O)Cn2cc(CCC(=O)Nc3nnc(S(N)(=O)=O)s3)nn2)C1)C(=O)O)C(=O)O)(c1ccc(O)cc1)c1ccc(O)cc1.[Lu+3]` [Compound 103.3], for which the Kd on human CA-XII (setting [1]) was above 10 nM; at human CA-IX (setting [2]), 2.5 to 10 nM.

In the case of `CC(CCC(=O)N[C@@H](CC(=O)N[C@@H](CC(=O)N1CCN(C(=O)CN2CCN(CC(=O)O)CCN(CC(=O)O)CC2)C[C@H]1C(=O)NCCn1cc(C23CC(C(=O)Nc4nnc(S(N)(=O)=O)s4)(C2)C3)nn1)C(=O)O)C(=O)O)(c1ccc(O)cc1)c1ccc(O)cc1.[Cu+2]` [Compound 126.4], the Kd was above 10 nM on human CA-XII (Chelated Metal: Cu (cold), 25° C., pH 7.4, read-out: CAXII KD) and below 1 nM on human CA-IX (Chelated Metal: Cu (cold); SPR, 25° C., pH 7.4; read-out: CAIX KD).

Turning to `NS(=O)(=O)c1nnc(NC(=O)C23CC(c4cn(CCNC(=O)[C@H]5CN(C(=O)CN6CCN(CC(=O)O)CCN(CC(=O)O)CCN(CC(=O)O)CC6)CCN5C(=O)[C@@H]5COCCN5C(=O)CCc5n[nH]c6ccccc56)nn4)(C2)C3)s1.[Lu+3]` [Compound 108.1], the Kd is above 10 nM on human CA-XII (setting [1]) and 2.5 to 10 nM on human CA-IX (setting [2]).

For `NS(=O)(=O)c1nnc(NC(=O)C23CC(c4cn(CCNC(=O)[C@@H]5CN(C(=O)CN6CCN(CC(=O)O)CCN(CC(=O)O)CCN(CC(=O)O)CC6)CCN5C(=O)C[C@H](Nc5ncc(C(=O)N6CCC(c7ccc(O)cc7)(c7ccc(O)cc7)CC6)cn5)C(=O)O)nn4)(C2)C3)s1.[Lu+3]` [Compound 111.4], the Kd at human CA-XII (setting [1]) is above 10 nM; at human CA-IX (setting [2]), 2.5 to 10 nM.

With `CC(CCCC(=O)N1CCC(C(N)=O)(C(=O)NCC(=O)NC2(C(=O)NCCn3cc(C45CC(C(=O)Nc6nnc(S(N)(=O)=O)s6)(C4)C5)nn3)CCN(C(=O)CC[C@H](C(=O)O)N3CCN(CC(=O)O)CCN(CC(=O)O)CCN(CC(=O)O)CC3)CC2)CC1)(c1ccc(O)cc1)c1ccc(O)cc1.[Lu+3]` [Compound 127.4], the Kd on human CA-XII (setting [1]) is above 10 nM; on human CA-IX (setting [2]), below 1 nM.

Consider `NS(=O)(=O)c1nnc(NC(=O)C23CCC(c4cn(CCNC(=O)[C@@H]5CN(C(=O)CN6CCN(CC(=O)O)CCN(CC(=O)O)CCN(CC(=O)O)CC6)CCN5C(=O)CC[C@H](NC(=O)C[C@H](NC(=O)Cc5[nH]nc6ccc(O)cc56)C(=O)O)C(=O)O)nn4)(CC2)CC3)s1.[Lu+3]` [Compound 109.41], for which the Kd on human CA-XII (setting [1]) and on human CA-IX (setting [2]) was below 1 nM in each case.

Regarding `NS(=O)(=O)c1nnc(NC(=O)C23CCC(c4cn(CCNC(=O)[C@@H]5CN(C(=O)CN6CCN(CC(=O)O)CCN(CC(=O)O)CCN(CC(=O)O)CC6)CCN5C(=O)CC[C@H](NC(=O)C[C@H](NC(=O)C5CC6(CCC6)C5)C(=O)O)C(=O)O)nn4)(CC2)CC3)s1.[Lu+3]` [Compound 109.51], the dissociation constant Kd at human CA-XII (setting [1]) and on human CA-IX (setting [2]) was below 1 nM throughout.

`CC(CCC(=O)N1CCC(C(=O)O)(C(=O)NCC(=O)N[C@@H](CCCCn2cc(CCCC(=O)Nc3nnc(S(N)(=O)=O)s3)nn2)C(=O)NCCOCCOCCNC(=O)CN2CCN(CC(=O)O)CCN(CC(=O)O)CCN(CC(=O)O)CC2)CC1)(c1ccc(O)cc1)c1ccc(O)cc1.[Lu+3]` [Compound 102]: the results for the Kd at human CA-XII (setting [3]) and at human CA-IX (setting [4]) were above 10 nM and 1 to 2.5 nM, respectively.

With `N[C@@H](CC(=O)N[C@@H](CCC(=O)N1CCN(C(=O)CN2CCN(CC(=O)O)CCN(CC(=O)O)CCN(CC(=O)O)CC2)C[C@H]1C(=O)NCCn1cc(C23CCC(C(=O)Nc4nnc(S(N)(=O)=O)s4)(CC2)CC3)nn1)C(=O)O)C(=O)O.[Lu+3]` [Compound 109.60], the figures for the Kd on human CA-XII (setting [1]) and on human CA-IX (setting [2]) were 1 to 2.5 nM and below 1 nM, respectively.

As to `CC[C@H]1CN(CC(=O)O)[C@@H](CC)CN(CC(=O)N2CCN(C(=O)C[C@H](NC(=O)C[C@H](NC(=O)CCC(C)(c3ccc(O)cc3)c3ccc(O)cc3)C(=O)O)C(=O)O)[C@H](C(=O)NCCn3cc(C45CC(C(=O)Nc6nnc(S(N)(=O)=O)s6)(C4)C5)nn3)C2)[C@@H](CC)CN(CC(=O)O)[C@@H](CC)CN1CC(=O)O.[Lu+3]` [Compound 128], the Kd on human CA-XII (setting [1]) is above 10 nM; at human CA-IX (setting [2]) it was below 1 nM.

For `CC(CCC(=O)N[C@@H](CC(=O)N[C@@H](CC(=O)N[C@@H](CCCn1cc(C23CC(C(=O)Nc4nnc(S(N)(=O)=O)s4)(C2)C3)nn1)C(=O)NCCOCCOCCNC(=O)CN1CCN(CC(=O)O)CCN(CC(=O)O)CCN(CC(=O)O)CC1)C(=O)O)C(=O)O)(c1ccc(O)cc1)c1ccc(O)cc1.[Lu+3]` [Compound 100.2], the dissociation constant Kd at human CA-XII (setting [1]) was above 10 nM; on human CA-IX (setting [2]), 1 to 2.5 nM.

Regarding `CN1CCN(C(=O)CCCC(C)(c2ccc(O)cc2)c2ccc(O)cc2)[C@H](C(=O)N[C@@H](CC(=O)N2CCN(C(=O)CN3CCN(CC(=O)O)CCN(CC(=O)O)CCN(CC(=O)O)CC3)C[C@@H]2C(=O)NCCn2cc(C34CC(C(=O)Nc5nnc(S(N)(=O)=O)s5)(C3)C4)nn2)C(=O)O)C1.[Lu+3]` [Compound 107.25], the Kd is above 10 nM on human CA-XII (setting [1]) and below 1 nM at human CA-IX (setting [2]).

As for `NS(=O)(=O)c1nnc(NC(=O)C23CC(c4cn(CCNC(=O)[C@@H]5CN(C(=O)CN6CCN(CC(=O)O)CCN(CC(=O)O)CCN(CC(=O)O)CC6)CCN5C(=O)CNC(=O)C5(C(=O)O)CCN(C(=O)CCc6n[nH]c7ccccc67)CC5)nn4)(C2)C3)s1.[Lu+3]` [Compound 112.4], the Kd at human CA-XII (setting [1]) was above 10 nM; at human CA-IX (setting [2]) it was 2.5 to 10 nM.
